Measurements from patent US20250032454A1, “KDM1A INHIBITORS FOR THE TREATMENT OF DISEASE” (Imago Biosciences, Inc., priority 2021, published 2025).
Like-named read-outs stand apart in the source and are kept apart here.

Experiments:
[1] = tested on: human hematopoietic stem cells (CD34+); test: HbF induction and red cell maturation in CD34+ hematopoietic stem cells differentiated to red cells over 18 days (HbF by HPLC); format: cell-based; details: for concentration that inhibits/arrests red cell maturation: co-culture from Day 7, harvest Day 18; for concentration that induces HbF: co-culture from Day 7, harvest Day 18, total HbF by HPLC
Description: In an in vitro assay system, human hematopoietic stem cells (CD34^+) from a single donor are cultured to differentiate into red cells over the course of 18 days using standard culture methods with eythrogenic growth factors. Three test articles were co-cultured beginning on Day 7: the compound described in Example 11SS, a reversible inhibitor of LSD1; 4-(2-(4-aminopiperidin-1-yl)-5-(4-methoxyphenyl)-1-methyl-6-oxo-1,6-dihydropyrimidin-4-yl)-2-fluorobenzonitrile, a potent reversible inhibitor of LSD1; and 2-(((trans)-2-(4-(benzyloxy)phenyl)cyclopropyl)amino)-1-(4-methylpiperazin-1-yl) ethanone dihydrochloride (RN-1), a commercially available potent […] inhibitor of LSD1. Cells were harvested at Day 18 and total HbF was assayed by HPLC, e.g., using a C20 reverse phase column. 4-(2-(4-aminopiperidin-1-yl)-5-(4-methoxyphenyl)-1-methyl-6-oxo-1,6-dihydropyrimidin-4-yl)-2-fluorobenzonitrile and RN-1 both induce HbF at 3 nM but inhibit red cell maturation at 10 nM.

[2] = target: LSD1 (Homo sapiens, UniProt O60341); test: LSD1 fluorescence coupling enzyme assay (HRP/Amplex Red, H3(1-21)K4me2 peptide), 10-dose IC50; format: biochemical; details: 10 μM histone H3(1-21)K4me2 peptide substrate, 3-fold serial dilution from 100 μM
Method in brief: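 Fluorescence coupled assay: LSD1 demethylation of 10 μM H3(1-21)K4me2 peptide produces FAD-dependent H2O2, detected via HRP/Amplex Red as resorufin (Ex/Em 535/590 nm). IC50 from 10 doses, 3-fold serial dilution from 100 μM, in duplicate.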

[3] = tested on: MV4;11 cells; test: Cell Titer-Glo cell growth inhibition in MV4;11 cell line (Day 5 / Day 10); format: cell-based; details: Homo sapiens
Method in brief: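 Cells seeded at 3750/well and treated with a 10-point, 4-fold dose curve from 0 to 50 µM; ATP-based luminescence viability read at Day 5. A portion is reseeded into fresh compound and media for 5 more days, read at Day 10; IC50 derived from luminescence.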

| SMILES | concentration that inhibits/arrests red cell maturation [1] | concentration that induces HbF [1] | IC50 [2] | IC50 ([3]; MV4-11, 120 h, Day 5, read-out: Cell Titer-Glo IC50 (5 d)) | IC50 ([3]; MV4-11, 240 h, Day 10, read-out: Cell Titer-Glo IC50 (10 d)) |
| --- | --- | --- | --- | --- | --- |
| CN1CCN(C(=O)CN[C@@H]2C[C@H]2c2ccc(OCc3ccccc3)cc2)CC1.Cl.Cl (relative stereo) [RN-1, 2-(((trans)-2-(4-(benzyloxy)phenyl)cyclopropyl)amino)-1-(4-methylpiperazin-1-yl) ethanone dihydrochloride, reference compound] | 10 nM | 3 nM | – | – | – |
| COc1ccc(-c2c(-c3ccc(C#N)c(F)c3)nc(N3CCC(N)CC3)n(C)c2=O)cc1 [4-(2-(4-aminopiperidin-1-yl)-5-(4-methoxyphenyl)-1-methyl-6-oxo-1,6-dihydropyrimidin-4-yl)-2-fluorobenzonitrile] | 10 nM | 3 nM | – | – | – |
| COc1ccc(-n2nc(NC[C@H]3CCC[C@H](N)C3)cc2-c2ccc(C#N)c(F)c2)cc1 [Example 11SS, 4-(3-((((1S,3S)-3-aminocyclohexyl)methyl)amino)-1-(4-methoxyphenyl)-1H-pyrazol-5-yl)-2-fluorobenzonitrile] | 300 nM | a higher concentration | < 500 nM | 500 to 1000 nM | < 500 nM |
